Laboratory results reported in patent US20230339889A1, “DERIVATIVES OF 2-OXO-N-(4-(PYRIMIDIN-4-YLOXY/THIO)PHENYL)-1,2-DIHYDROPYRIDINE-3-CARBOXAMIDE FOR USE AS PROTEIN KINASE INHIBITORS FOR THERAPY” (AUCENTRA THERAPEUTICS PTY LTD, priority 2020, published 2023).

Tests used:
MET = target: T1, MET (Homo sapiens, UniProt P08581); test: Filter-binding radiometric kinase activity assay (KinaseProfiler, Eurofins); type: biochemical; details: 1 µM compound; read-out: % Residual enzymatic activity at 1 µM MET
T1 construct: purchased Eurofins Discovery (Kinase Profiler service)

TYRO3 = target: T2, TYRO3 (Homo sapiens, UniProt Q06418); test: as above; type: biochemical; details: 1 µM compound; read-out: % Residual enzymatic activity at 1 µM TYRO3
T2 construct: purchased Eurofins Discovery (Kinase Profiler service)
T2 sequence (Q06418 41-890): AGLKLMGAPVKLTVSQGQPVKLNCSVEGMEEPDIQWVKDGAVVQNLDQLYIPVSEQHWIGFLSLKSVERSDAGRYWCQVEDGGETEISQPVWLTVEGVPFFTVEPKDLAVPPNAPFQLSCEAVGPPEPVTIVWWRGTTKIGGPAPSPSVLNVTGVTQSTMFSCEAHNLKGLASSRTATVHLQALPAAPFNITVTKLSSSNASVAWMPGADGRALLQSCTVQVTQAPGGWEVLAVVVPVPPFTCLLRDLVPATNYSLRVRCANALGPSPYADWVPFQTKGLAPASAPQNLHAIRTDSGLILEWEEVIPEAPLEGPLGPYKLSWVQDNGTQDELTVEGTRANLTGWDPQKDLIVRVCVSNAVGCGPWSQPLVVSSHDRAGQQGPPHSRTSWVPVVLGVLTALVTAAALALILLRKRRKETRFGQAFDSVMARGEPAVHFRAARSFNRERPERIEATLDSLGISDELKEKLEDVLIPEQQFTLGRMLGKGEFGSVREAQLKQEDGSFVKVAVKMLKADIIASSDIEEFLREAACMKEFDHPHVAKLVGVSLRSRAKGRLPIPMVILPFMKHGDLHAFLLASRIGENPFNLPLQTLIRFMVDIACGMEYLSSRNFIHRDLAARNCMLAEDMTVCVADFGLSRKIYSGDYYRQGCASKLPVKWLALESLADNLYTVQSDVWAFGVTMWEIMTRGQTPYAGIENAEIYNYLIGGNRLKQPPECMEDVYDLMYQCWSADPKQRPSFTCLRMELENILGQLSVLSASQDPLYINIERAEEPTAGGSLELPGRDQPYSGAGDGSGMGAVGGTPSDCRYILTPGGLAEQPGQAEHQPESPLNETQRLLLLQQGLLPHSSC

MDA-MB-231 = test: Proliferation assay (resazurin, solid tumour cell line); type: cell-based; details: Homo sapiens; MDA-MB-231 cells
From the text: Compounds from Example 1 were subjected to standard resazurin and MTT assays on solid tumour and leukaemia cancer cell lines, respectively, as previously reported (Wang S et al., J Med Chem 47:1662-1675, 2004 and Diab S et al., CheMedChem 9:962-972, 2014).

T1 sequence (P08581 25-1390): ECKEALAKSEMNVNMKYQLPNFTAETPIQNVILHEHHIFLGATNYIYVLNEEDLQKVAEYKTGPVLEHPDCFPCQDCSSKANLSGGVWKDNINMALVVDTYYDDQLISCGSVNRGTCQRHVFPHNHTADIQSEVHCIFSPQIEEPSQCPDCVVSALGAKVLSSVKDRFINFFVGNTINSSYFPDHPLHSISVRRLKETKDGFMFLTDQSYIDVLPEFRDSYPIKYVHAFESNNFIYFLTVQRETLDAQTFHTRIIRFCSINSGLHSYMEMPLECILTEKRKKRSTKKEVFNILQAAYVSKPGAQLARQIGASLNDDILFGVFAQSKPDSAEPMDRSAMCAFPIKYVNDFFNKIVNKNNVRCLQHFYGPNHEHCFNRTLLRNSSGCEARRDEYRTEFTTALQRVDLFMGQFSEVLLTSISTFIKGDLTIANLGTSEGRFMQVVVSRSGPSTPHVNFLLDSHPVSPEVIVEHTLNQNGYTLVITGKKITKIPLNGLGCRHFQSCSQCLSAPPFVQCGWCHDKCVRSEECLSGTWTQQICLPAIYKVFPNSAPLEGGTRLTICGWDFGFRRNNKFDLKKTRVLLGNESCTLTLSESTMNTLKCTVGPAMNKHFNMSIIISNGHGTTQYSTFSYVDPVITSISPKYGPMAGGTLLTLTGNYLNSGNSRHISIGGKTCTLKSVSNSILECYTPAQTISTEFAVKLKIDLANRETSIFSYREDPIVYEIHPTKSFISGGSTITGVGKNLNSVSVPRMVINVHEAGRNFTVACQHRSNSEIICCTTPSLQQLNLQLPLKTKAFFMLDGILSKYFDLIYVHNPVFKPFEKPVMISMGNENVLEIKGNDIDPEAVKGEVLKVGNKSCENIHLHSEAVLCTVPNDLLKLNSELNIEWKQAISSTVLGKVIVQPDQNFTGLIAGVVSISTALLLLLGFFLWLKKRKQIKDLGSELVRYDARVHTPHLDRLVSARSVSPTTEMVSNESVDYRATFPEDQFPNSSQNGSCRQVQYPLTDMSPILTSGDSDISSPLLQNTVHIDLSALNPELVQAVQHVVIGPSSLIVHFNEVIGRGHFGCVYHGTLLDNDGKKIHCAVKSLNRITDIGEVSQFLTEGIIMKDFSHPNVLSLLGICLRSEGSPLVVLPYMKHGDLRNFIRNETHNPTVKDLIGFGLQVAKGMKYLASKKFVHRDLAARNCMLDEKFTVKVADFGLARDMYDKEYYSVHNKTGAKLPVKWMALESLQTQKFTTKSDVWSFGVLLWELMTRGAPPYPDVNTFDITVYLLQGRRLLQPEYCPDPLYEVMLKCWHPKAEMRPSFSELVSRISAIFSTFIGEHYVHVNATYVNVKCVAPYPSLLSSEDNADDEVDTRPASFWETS

Nc1ncnc(Oc2ccc(NC(=O)c3cccn(-c4ccc(F)cc4)c3=O)cc2F)c1F [Cmpd 1, N-(4-((6-amino-5-fluoropyrimidin-4-yl)oxy)-3-fluorophenyl)-1-(4-fluorophenyl)-2-oxo-1,2-dihydropyridine-3-carboxamide]
remaining activity at 1 µM (MET): 0% | remaining activity at 1 µM (TYRO3): -1% | GI50 (MDA-MB-231): 1.2 µM

Nc1ncnc(Oc2ccc(NC(=O)c3cccn(-c4ccc(F)cc4)c3=O)cc2F)c1Cl [Cmpd 3, N-(4-((6-amino-5-chloropyrimidin-4-yl)oxy)-3-fluorophenyl)-1-(4-fluorophenyl)-2-oxo-1,2-dihydropyridine-3-carboxamide]
remaining activity at 1 µM (MET): -7% | remaining activity at 1 µM (TYRO3): 0% | GI50 (MDA-MB-231): 7.9 µM

Nc1ncnc(Oc2ccc(NC(=O)c3cccn(-c4ccc(F)cc4)c3=O)cc2)c1Cl [Cmpd 4, N-(4-((6-amino-5-chloropyrimidin-4-yl)oxy)phenyl)-1-(4-fluorophenyl)-2-oxo-1,2-dihydropyridine-3-carboxamide]
remaining activity at 1 µM (MET): -5% | remaining activity at 1 µM (TYRO3): 2% | GI50 (MDA-MB-231): 2.7 µM

Nc1ncnc(Oc2ccc(NC(=O)c3cccn(-c4ccc(F)cc4)c3=O)c(F)c2)c1Cl [Cmpd 5, N-(4-((6-amino-5-chloropyrimidin-4-yl)oxy)-2-fluorophenyl)-1-(4-fluorophenyl)-2-oxo-1,2-dihydropyridine-3-carboxamide]
remaining activity at 1 µM (MET): -5% | remaining activity at 1 µM (TYRO3): 2% | GI50 (MDA-MB-231): 0.9 µM

Nc1ncnc(Oc2ccc(NC(=O)c3cccn(-c4ccc(F)cc4)c3=O)cc2)c1F [Cmpd 6, N-(4-((6-amino-5-fluoropyrimidin-4-yl)oxy)phenyl)-1-(4-fluorophenyl)-2-oxo-1,2-dihydropyridine-3-carboxamide]
remaining activity at 1 µM (MET): 8% | remaining activity at 1 µM (TYRO3): 6% | GI50 (MDA-MB-231): 8.9 µM

Nc1ncnc(Oc2ccc(NC(=O)c3cccn(-c4ccc(F)cc4)c3=O)c(F)c2)c1F [Cmpd 7, N-(4-((6-amino-5-fluoropyrimidin-4-yl)oxy)-2-fluorophenyl)-1-(4-fluorophenyl)-2-oxo-1,2-dihydropyridine-3-carboxamide]
remaining activity at 1 µM (MET): -6% | remaining activity at 1 µM (TYRO3): 5% | GI50 (MDA-MB-231): 2.3 µM
